Drawing on patent US6403805B1 (Janssen Pharmaceutica N.V., priority 1995, dated 2002), this text covers melting point, inhibition in vivo and IC50 for eight compounds.

The test system of data set [1] is dextran-induced oedema formation in mouse ear. Put plainly: Dextran-induced oedema formation in mouse ear. In kind it is in vivo, Male Swiss mice. Conditions: Mus musculus, 1 h; oral dose of 5 mg/kg in PEG-200, one hour before i.v. dextran T500/pontamine sky-blue; vs background blueing value; read-out: % inhibition of the extravasation of the dye. The procedure: Dextran-induced oedema formation in mouse ear Systemic injection of dextran T500 in normal, non-sensitized mice elicits increased vascular permeability, leading to extravasation and oedema of the extremities. When dextran is injected together with a blue dye, blueing of the ears is the most prominent feature of oedematous response. Male Swiss mice weighting 24-26 g were orally pretreated with the test compound dissolved in PEG-200 at different concentrations or solvent. One hour later, the mice were given an intravenous injection with an isotonic saline solution containing 12 mg/ml dextran T500 and 2.6 mg/ml pontamine sky-blue dye, in a volume of 0.1 ml per 10 g body weight. One hour and forty-five minutes later, the animals are sacrificed by ether and their ears removed. Extraction and quantification of the extravasated dye is done as described by Van Wauwe and Goossens (Drug Dev. Res. 1986, 8, 213-218). The extravasation of the dye is characterized by the blueing value which is defined as the concentration of the extracted dye in both ears. The background blueing value was determined once as the mean blueing value obtained by injecting a group of mice with a saline solution containing only dextran T500 and the blue dye. Table 6 lists the percentage inhibition of the extravasation of the dye when compared with the background extravasation of the dye when the test compound was administered at a dose of 5 mg/kg. The test compounds indicated by an asterisk (*) were tested at a dose of 2.5 mg/kg

Data set [2] concerns the target T1, recombinant human MNL phosphodiesterase type IV B (Homo sapiens, UniProt Q07343).
T1 construct: made in house; host or cells: insect cells infected with recombinant baculovirus
Put plainly: Inhibition of recombinant human mononuclear lymphocyte (MNL) phosphodiesterase type IV B produced in insect cells with a baculovirus vector. The following applies: recombinant human MNL PDE IV B; 0.8 μM 3H-cAMP, pH 8, 37° C.; calculated graphically. In kind it is biochemical. The method, then: Inhibition of recombinant human mononuclear lymphoctye (MNL) phosphodiesterase type IV B produced in insect cells with a baculovirus vector
The alleviating and/or curing effect of the instant compounds on allergic and atopic diseases was assessed by an in vitro assay system to detect an inhibiting effect on the recombinant human MNL phosphodiesterase type IV B.
Seventy-two hours after infection with recombinant baculovirus, the insect cells were harvested and pelleted at 500 g for 5 minutes. The cells were lysed in 10 ml lysis-buffer consisting of 20 mM Tris, 10 mM EGTA, 2 mM Na2EDTA, 1% Triton-X-100, 1 mM Na3VO4, 10 mM NaF, 2 μg/ml of leupeptine, pepstatine and aprotinine, 0.3 μg/ml benzamidine and 100 μg/ml TPCK pH 7.5. After 5 minutes on ice, solubilized cells were centrifuged at 4000 rpm for 15 minutes at 4° C. The resulting supernatant was filtered through a 0.45 μm filter (Millipore) and brought to TBS buffer (50 mM Tris, 150 mM NaCl pH 7.4).
After washing the column with equilibration buffer, PDE IV was eluted in 1.5 ml fractions containing 37.5 μl 1M Tris pH 8. The fractions were dialyzed overnight against 20 mM Tris, 2 mM Na2EDTA and 400 mM NaCl pH 7.5 and tested for PDE IV activity. Identification was done on SDS PAGE and Western Blot (anti-FLAG-M2). Active fractions were pooled, brought to 10% glycerol and stored at −70° C.
The incubation mixture (pH 8) (200 μl) contained 20 mM Tris, 10 mM magnesium sulphate, 0.8 μM ^3H-cAMP (310 mCi/mmole) and the phosphodiesterase type IV, the amount depending on the enzymatic activity.
When the effect of different compounds on phosphodiesterase activity was tested, the medium without cAMP was incubated with the compound(s) or its carrier (DMSO-1% final concentration) for 5 min. The enzymatic reaction was started by addition of ^3H-cAMP and stopped 10 min later after transferring the microtiter-plate in a waterbath at 100° C. for 5 min. After cooling to room temperature, alkaline phosphatase (0.25 μg/ml) was added and the mixture was incubated at 37° C. for 20 min. 100 μl of the mixture was subsequently applied to a GF-B filter-microtiter-plate (Millipore) filled with 300 μl DEAE-Sephadex-A25 suspension. The plate was washed 3 times with 75 μl 20 mM Tris pH 7.5 and the filtrates were collected for counting in the Packard Top Count scintillation counter.
The inhibiting effect of the present compounds on recombinant human MNL phosphodiesterase PDE IV B was measured at different concentrations of the instant compounds. The IC50 values (expressed in M) were calculated graphically from the thus obtained inhibition values.

Counter-ions that a name gives are not always drawn.

T1 sequence (Q07343 whole entry): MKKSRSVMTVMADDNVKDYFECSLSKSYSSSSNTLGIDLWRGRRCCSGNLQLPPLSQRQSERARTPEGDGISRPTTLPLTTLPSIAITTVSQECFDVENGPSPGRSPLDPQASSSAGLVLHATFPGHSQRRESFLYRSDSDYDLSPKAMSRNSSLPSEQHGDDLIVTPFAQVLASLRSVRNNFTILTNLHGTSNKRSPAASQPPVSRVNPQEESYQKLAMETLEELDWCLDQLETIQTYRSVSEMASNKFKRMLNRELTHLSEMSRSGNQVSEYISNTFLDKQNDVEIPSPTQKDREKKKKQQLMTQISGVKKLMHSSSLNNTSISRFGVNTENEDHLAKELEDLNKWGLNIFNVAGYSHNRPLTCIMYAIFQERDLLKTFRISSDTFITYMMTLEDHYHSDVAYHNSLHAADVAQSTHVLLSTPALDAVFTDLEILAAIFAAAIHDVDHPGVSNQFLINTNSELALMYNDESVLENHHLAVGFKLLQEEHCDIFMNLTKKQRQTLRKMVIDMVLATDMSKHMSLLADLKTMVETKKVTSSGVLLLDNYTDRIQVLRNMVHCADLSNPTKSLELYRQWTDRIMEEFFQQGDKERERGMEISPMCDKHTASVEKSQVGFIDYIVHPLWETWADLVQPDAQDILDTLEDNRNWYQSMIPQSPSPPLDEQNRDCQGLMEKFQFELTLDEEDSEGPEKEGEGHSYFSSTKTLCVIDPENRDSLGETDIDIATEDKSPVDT

The melting point is the temperature, or range, at which the solid turns liquid. `COc1ccc(C(N)CN2CCN(Cc3ccccc3)C2=O)cc1OC` (racemic) (as salt: hydrochloric acid salt) [Compound 11, (±)-1-[2-amino-2-(3,4-dimethoxyphenyl)ethyl]-3-(phenylmethyl)-2-imidazolidinone] yielded a melting point of 221.7 °C. As usually defined, the IC50 is the concentration that gives 50% inhibition. With `COc1ccc(C(C)(O)Cn2cc[nH]c2=O)cc1OC1CCCC1` (racemic) [Compound 12, (±)-1-[2-[3-(cyclopentyloxy)-4-methoxyphenyl]-2-hydroxypropyl]-1,3-dihydro-2H-imidazol-2-one], the melting point was found to be 136.2 °C. Besides, in data set [1], the inhibition in vivo at 5 mg/kg was determined as 87.5%. In data set [2], the half-maximal inhibitory concentration (IC50) was 290 nM. On to `COc1ccc(C(CN2CCN(Cc3ccccc3)C2=O)NC(C)=O)cc1OC` (racemic) [Compound 14, (±)-N-[1-(3,4-dimethoxyphenyl)-2-[2-oxo-3-(phenylmethyl)-1-imidazolidinyl]ethyl]acetamide], for which the melting point amounted to 156.4 °C. In addition, the inhibition in vivo at 5 mg/kg in data set [1] came to 32.3%. In the case of `CCOC(Cn1cc[nH]c1=O)c1ccc(OC)c(OC)c1` (racemic) [Compound 15, (±)-1-[2-(3,4-dimethoxyphenyl)-2-ethoxyethyl]-1,3-dihydro-2H-imidazol-2-one], the melting point turned out to be 133.6 °C.

`COc1ccc(C2(Cn3ccn(Cc4ccccc4)c3=O)CC2)cc1OC` [Compound 21, 1-[[1-(3,4-dimethoxyphenyl)cyclopropyl]methyl]-1,3-dihydro-3-(phenylmethyl)-2H-imidazol-2-one] yielded a melting point of 110.5 °C. Regarding `COc1ccc(C(C)CN2CCNC2=O)cc1OC` (centres unmarked) [Compound 80, 1-[2-(3,4-dimethoxyphenyl)propyl]-1,3,4,5-tetrahydro-2H-imidazol-2-one], the inhibition in vivo at 5 mg/kg in data set [1] was found to be 53.4%. In addition, in data set [2], the IC50 is 3200 nM.

As to `CCOc1ccc(CCn2cc[nH]c2=O)cc1OCC` [Compound 82], in data set [1], the inhibition in vivo at 5 mg/kg is 28.2%. The IC50 in data set [2] was 460 nM.

For the compound `COc1ccc(C(Cn2cc[nH]c2=O)OC)cc1OC` (centres unmarked) [Compound 83, 1,3-dihydro-1-[2-(3,4-dimethoxyphenyl)-2-methoxy-ethyl]-2H-imidazol-2-one], the inhibition in vivo at 5 mg/kg in data set [1] came out at 18.6%. Besides, the IC50 in data set [2] is 2700 nM.
